Assay results reported in patent US12691112B2, “FGFR tyrosine kinase inhibitors for the treatment of urothelial carcinoma” (Janssen Pharmaceutica NV, priority 2019, dated 2026).
Several values for one entry are separate records, joined by “and”; a condition that tells them apart may be missing. Identical values can stand only once. Like-named read-outs stand apart in the source and are kept apart here.

Tested on: metastatic or surgically unresectable urothelial cancer harboring select FGFR genetic alterations
Conditions: for Disease control rate (CR + PR + SD) / Inevaluable / Objective response rate (CR + PR) / Progressive disease (PD) / Confirmed complete response (CR) / Confirmed partial response (PR) / 6-month progression-free survival rate (95% CI), among responders / 9-month progression-free survival rate (95% CI), among responders / 12-month progression-free survival rate (95% CI), among responders: chemo relapsed/refractory
Source text: The study comprises a Screening Phase (molecular screening at any time prior to first dose and study screening within 30 days of first dose), a treatment phase, and a post-treatment follow-up phase. The treatment phase comprises the period from first dose until the end-of-treatment visit. The follow-up phase extends until the subject has died, withdraws consent, is lost to follow-up, or the end of study, whichever comes first.
Included patients were adults with measurable urothelial cancer per Response Evaluation Criteria in Solid Tumors version 1.1.
Patients were required to have at least 1 FGFR2/FGFR3 mutation or fusion per central lab testing of RNA from formalin-fixed, paraffin-embedded tumor samples, using a custom reverse transcriptase polymerase chain reaction assay.
Patients were contacted every 12 weeks for survival assessment.
The study was designed to enroll 180 patients with specified FGFR alterations. Of these, ≥88 were required in the selected regimen. […] Responses were assessed by investigators and an independent radiological review committee. Progression-free survival and overall survival were estimated using Kaplan-Meier product limit method. Data from patients who were progression free and alive or with unknown status were censored at last tumor assessment. Efficacy end points were analysed at primary analysis cut-off.

[1] = 10 mg 7 on/7 off, Mutation and fusion: FGFR3-S249C/FGFR3-Y373C/FGFR2-CASP7/FGFR3-BAIAP2L1/FGFR3-TACC3 V1/FGFR3-TACC3 V3, n=1
[2] = 10 mg 7 on/7 off, Mutation: FGFR3-G370C/FGFR3-S249C, n=1
[3] = 10 mg 7 on/7 off, Mutation: FGFR3-R248C/FGFR3-Y373C, n=1
[4] = 10 mg 7 on/7 off, Mutation: FGFR3-S249C/FGFR3-Y373C, n=1
[5] = Regimen 1, 10 mg intermittent (n=33)
[6] = Regimen 2, 6 mg continuous (n=78)
[7] = Regimen 3, 8 mg continuous (n=99)
[8] = Total (all 3 regimens), Any FGFR alterations, n=189
[9] = Total (all 3 regimens), FGFR fusions (excluding mutations), 6 responders
[10] = Total (all 3 regimens), FGFR fusions (excluding mutations), n=35
[11] = Total (all 3 regimens), FGFR mutations (excluding fusions), 58 responders
[12] = Total (all 3 regimens), FGFR mutations (excluding fusions), n=147
[13] = Total (all 3 regimens), FGFR mutations and fusions, 4 responders
[14] = Total (all 3 regimens), FGFR mutations and fusions, n=7
[15] = Total (all 3 regimens), Fusion: FGFR2-CASP7/FGFR3-BAIAP2L1, n=1
[16] = Total (all 3 regimens), Fusion: FGFR2-CASP7/FGFR3-TACC3 V3, n=1
[17] = Total (all 3 regimens), Mutation and fusion: FGFR3-G370C/FGFR2-BICC1, n=1
[18] = Total (all 3 regimens), Mutation and fusion: FGFR3-G370C/FGFR3-TACC3 V1, n=1
[19] = Total (all 3 regimens), Mutation and fusion: FGFR3-R248C/FGFR3-S249C/FGFR3-TACC3 V1, n=1
[20] = Total (all 3 regimens), Mutation and fusion: FGFR3-R248C/FGFR3-TACC3 V1, n=2
[21] = Total (all 3 regimens), Mutation and fusion: FGFR3-S249C/FGFR3-BAIAP2L1, n=1
[22] = Total (all 3 regimens), Mutation and fusion: FGFR3-S249C/FGFR3-Y373C/FGFR2-CASP7/FGFR3-BAIAP2L1/FGFR3-TACC3 V1/FGFR3-TACC3 V3, n=1
[23] = Total (all 3 regimens), Mutation: FGFR3-G370C/FGFR3-S249C, n=2
[24] = Total (all 3 regimens), Mutation: FGFR3-R248C/FGFR3-Y373C, n=2
[25] = Total (all 3 regimens), Mutation: FGFR3-S249C/FGFR3-Y373C, n=1

For `COc1cc(OC)cc(N(CCNC(C)C)c2ccc3ncc(-c4cnn(C)c4)nc3c2)c1` [erdafitinib, N-(3,5-dimethoxy-phenyl)-N′-(1-methylethyl)-N-[3-(1-methyl-1H-pyrazol-4-yl)quinoxalin-6-yl]ethane-1,2-diamine], the “Disease control rate (CR + PR + SD)” value [1] was 1 (100.0%), the Inevaluable [1] was 0% and the “Objective response rate (CR + PR)” value [1] was 0%. The “Progressive disease (PD)” value [1] was 0%, the “Confirmed complete response (CR)” value [2] was 0% and the “Confirmed partial response (PR)” value [2] was 1 (100.0%). For the same molecule, the “Disease control rate (CR + PR + SD)” value [2] was 1 (100.0%), the Inevaluable [2] was 0% and the “Objective response rate (CR + PR)” value [2] was 1 (100.0%). For the same molecule, the “Progressive disease (PD)” value [2] was 0%, the “Confirmed complete response (CR)” value [3] was 0% and the “Confirmed partial response (PR)” value [3] was 1 (100.0%). For the same molecule, the “Disease control rate (CR + PR + SD)” value [3] was 1 (100.0%), the Inevaluable [3] was 0% and the “Objective response rate (CR + PR)” value [3] was 1 (100.0%). For the same molecule, the “Progressive disease (PD)” value [3] was 0%, the “Confirmed complete response (CR)” value [4] was 0% and the “Confirmed partial response (PR)” value [4] was 0%. The “Disease control rate (CR + PR + SD)” value [4] was 1 (100.0%), the Inevaluable [4] was 0% and the “Objective response rate (CR + PR)” value [4] was 0%. For the same molecule, the “Progressive disease (PD)” value [4] was 0%, the “Complete response per investigator assessment” value [5] was 1 (3) % and the “Not evaluable or unknown per investigator assessment” value [5] was 2 (6) %. For the same molecule, the “Objective response rate per investigator assessment” value [5] was 7 (21) %, the “Partial response per investigator assessment” value [5] was 6 (18) % and the “Progressive disease per investigator assessment” value [5] was 6 (18) %. The “Stable disease per investigator assessment” value [5] was 18 (55) %, the “Objective response rate per investigator assessment” value (Regimen 1, 10 mg intermittent, liver metastases) was 3/11 (27) % and the “Complete response per investigator assessment” value [6] was 3 (4) %. For the same molecule, the “Not evaluable or unknown per investigator assessment” value [6] was 5(6) %, the “Objective response rate per investigator assessment” value [6] was 27 (35) % and the “Partial response per investigator assessment” value [6] was 24 (31) %. The “Progressive disease per investigator assessment” value [6] was 16 (21) %, the “Objective response rate per investigator assessment” value (Regimen 2, 6 mg continuous, bone metastases) was 6/15 (40) % and the “Not evaluable or unknown per investigator assessment” value [7] was 2 (2.0) %. The “Objective response rate per investigator assessment” value [7] was 40.4% and 40% and 40 (40.4) %, the “Partial response per investigator assessment” value [7] was 37 (37.4) % and the “Progressive disease per investigator assessment” value [7] was 18 (18.2) %. The “Stable disease per investigator assessment” value [7] was 39% and 39 (39.4) %, the “Objective response rate per investigator assessment” value (Regimen 3, 8 mg continuous, with FGFR3 mutations (n=74)) was 48.6% and 36/74 (48.6) % and the “Median DoR (95% CI), investigator assessment” value (Regimen 3, chemotherapy-refractory patients, N = 87) was 5.55 (4.21, 7.00) months. The “Confirmed complete response (CR)” value [8] was 7 (3.7%), the “Confirmed partial response (PR)” value [8] was 61 (32.3%) and the “Disease control rate (CR + PR + SD)” value [8] was 147 (77.8%). For the same molecule, the Inevaluable [8] was 8 (4.2%), the “Objective response rate (CR + PR)” value [8] was 68 (36.0%) and the “Progressive disease (PD)” value [8] was 34 (18.0%). For the same molecule, the “6-month progression-free survival rate (95% CI), among responders” value [9] was 0.50 (0.11, 0.80), the “9-month progression-free survival rate (95% CI), among responders” value [9] was 0.50 (0.11, 0.80) and the “12-month progression-free survival rate (95% CI), among responders” value [9] was 0.50 (0.11, 0.80). The “Confirmed complete response (CR)” value [10] was 0%, the “Confirmed partial response (PR)” value [10] was 6 (17.1%) and the “Disease control rate (CR + PR + SD)” value [10] was 25 (71.4%). The Inevaluable [10] was 2 (5.7%), the “Objective response rate (CR + PR)” value [10] was 6 (17.1%) and the “Progressive disease (PD)” value [10] was 8 (22.9%). The “6-month progression-free survival rate (95% CI), among responders” value [11] was 0.45 (0.32, 0.58), the “9-month progression-free survival rate (95% CI), among responders” value [11] was 0.29 (0.17, 0.42) and the “12-month progression-free survival rate (95% CI), among responders” value [11] was 0.22 (0.12, 0.35). For the same molecule, the “Confirmed complete response (CR)” value [12] was 6 (4.1%), the “Confirmed partial response (PR)” value [12] was 52 (35.4%) and the “Disease control rate (CR + PR + SD)” value [12] was 117 (79.6%). The Inevaluable [12] was 5 (3.4%), the “Objective response rate (CR + PR)” value [12] was 58 (39.5%) and the “Progressive disease (PD)” value [12] was 25 (17.0%). The “6-month progression-free survival rate (95% CI), among responders” value [13] was 0.50 (0.06, 0.84), the “9-month progression-free survival rate (95% CI), among responders” value [13] was 0.50 (0.06, 0.84) and the “12-month progression-free survival rate (95% CI), among responders” value [13] was 0.25 (0.01, 0.67). For the same molecule, the “Confirmed complete response (CR)” value [14] was 1 (14.3%), the “Confirmed partial response (PR)” value [14] was 3 (42.9%) and the “Disease control rate (CR + PR + SD)” value [14] was 5 (71.4%). For the same molecule, the Inevaluable [14] was 1 (14.3%), the “Objective response rate (CR + PR)” value [14] was 4 (57.1%) and the “Progressive disease (PD)” value [14] was 1 (14.3%). The “Confirmed complete response (CR)” value [15] was 0%, the “Confirmed partial response (PR)” value [15] was 0% and the “Disease control rate (CR + PR + SD)” value [15] was 1 (100.0%). The Inevaluable [15] was 0%, the “Objective response rate (CR + PR)” value [15] was 0% and the “Progressive disease (PD)” value [15] was 0%. For the same molecule, the “Confirmed complete response (CR)” value [16] was 0%, the “Confirmed partial response (PR)” value [16] was 0% and the “Disease control rate (CR + PR + SD)” value [16] was 0%. For the same molecule, the Inevaluable [16] was 1 (100.0%), the “Objective response rate (CR + PR)” value [16] was 0% and the “Progressive disease (PD)” value [16] was 0%. For the same molecule, the “Confirmed complete response (CR)” value [17] was 1 (100.0%), the “Confirmed partial response (PR)” value [17] was 0% and the “Disease control rate (CR + PR + SD)” value [17] was 1 (100.0%). For the same molecule, the Inevaluable [17] was 0%, the “Objective response rate (CR + PR)” value [17] was 1 (100.0%) and the “Progressive disease (PD)” value [17] was 0%. The “Confirmed complete response (CR)” value [18] was 0%, the “Confirmed partial response (PR)” value [18] was 1 (100.0%) and the “Disease control rate (CR + PR + SD)” value [18] was 1 (100.0%). For the same molecule, the Inevaluable [18] was 0%, the “Objective response rate (CR + PR)” value [18] was 1 (100.0%) and the “Progressive disease (PD)” value [18] was 0%. For the same molecule, the “Confirmed complete response (CR)” value [19] was 0%, the “Confirmed partial response (PR)” value [19] was 1 (100.0%) and the “Disease control rate (CR + PR + SD)” value [19] was 1 (100.0%). The Inevaluable [19] was 0%, the “Objective response rate (CR + PR)” value [19] was 1 (100.0%) and the “Progressive disease (PD)” value [19] was 0%. The “Confirmed complete response (CR)” value [20] was 0%, the “Confirmed partial response (PR)” value [20] was 1 (50.0%) and the “Disease control rate (CR + PR + SD)” value [20] was 1 (50.0%). The Inevaluable [20] was 1 (50.0%), the “Objective response rate (CR + PR)” value [20] was 1 (50.0%) and the “Progressive disease (PD)” value [20] was 0%. The “Confirmed complete response (CR)” value [21] was 0%, the “Confirmed partial response (PR)” value [21] was 0% and the “Disease control rate (CR + PR + SD)” value [21] was 0%. For the same molecule, the Inevaluable [21] was 0%, the “Objective response rate (CR + PR)” value [21] was 0% and the “Progressive disease (PD)” value [21] was 1 (100.0%). For the same molecule, the “Confirmed complete response (CR)” value [22] was 0%, the “Confirmed partial response (PR)” value [22] was 0% and the “Disease control rate (CR + PR + SD)” value [22] was 1 (100.0%). The Inevaluable [22] was 0%, the “Objective response rate (CR + PR)” value [22] was 0% and the “Progressive disease (PD)” value [22] was 0%. The “Confirmed complete response (CR)” value [23] was 0%, the “Confirmed partial response (PR)” value [23] was 1 (50.0%) and the “Disease control rate (CR + PR + SD)” value [23] was 2 (100.0%). The Inevaluable [23] was 0%, the “Objective response rate (CR + PR)” value [23] was 1 (50.0%) and the “Progressive disease (PD)” value [23] was 0%. The “Confirmed complete response (CR)” value [24] was 0%, the “Confirmed partial response (PR)” value [24] was 2 (100.0%) and the “Disease control rate (CR + PR + SD)” value [24] was 2 (100.0%). For the same molecule, the Inevaluable [24] was 0%, the “Objective response rate (CR + PR)” value [24] was 2 (100.0%) and the “Progressive disease (PD)” value [24] was 0%. For the same molecule, the “Confirmed complete response (CR)” value [25] was 0%, the “Confirmed partial response (PR)” value [25] was 0% and the “Disease control rate (CR + PR + SD)” value [25] was 1 (100.0%). For the same molecule, the Inevaluable [25] was 0%, the “Objective response rate (CR + PR)” value [25] was 0% and the “Progressive disease (PD)” value [25] was 0%.
